Test results from US20220402883A1, “COMPOUNDS AND METHODS FOR MODULATING RNA FUNCTION” (Arrakis Therapeutics, Inc., priority 2016, published 2022).
Counter-ions that a name gives are not always drawn.

Legend:
[1] = test system: RNA3WJ_0.0.0_5IB_3FAM (3WJ_0.0.0_5IB_3FAM RNA construct); assay: Thermal shift binding assay; conditions: for Melt. Temp. with cmpd / Shift melt. Temp.: RNA sequence 3WJ_0.0.0_5IB_FAM; for Melt. Temp. with cmpd: melting temperature in presence of compound; for Shift melt. Temp.: with cmpd minus without cmpd
Description: (§1) Purpose: Test binding of compounds for RNA three way junction (for example, a construct of 38 nt). Thermal shift assay based on established fluorescence quenching assay utilizing FAM as fluorescence tag and Iowa Black as quencher. Tags were attached at the 3′ and 5′ end, respectively. Stable formation of 3WJ upon compound binding would lead to quenching of the FAM fluorescence due to close proximity of the Iowa Black tag. Thermal unfolding leads to increase of fluorescence emission. Assay readout: FAM (465-510 nm) Thermal Shift.
(§2) Assay sample buffer used: 10 mM CacoK pH 7.2, 30 mM NaCl. Buffer preparation in Dnase/Rnase Free distilled water (Gibco Life Technologies).
(§3) Dilute the RNA 1:10 (final 10 μM) in Assay Buffer.
(§4) Heat up the diluted RNA up to 90° C. for 5 min (sealed Eppendorf Tube).
(§5) Cool down the RNA probe slowly to RT.
(§6) Dilute the compounds to 800 μM in DMSO (Assay: 8 μM). […]
(§7) Pipet 20 μL Sample Solution into Roche, Light Cycler480 Multiwell Plate96, white, REF 04729692001.
(§8) Measure the 96 plate with the LightCycler480 (Channel: 480/510 nm; Temperature: 41-91° C.).
(§9) Analyse measurement-data with the MeltingCurveGenotyping Mode.
(§10) Settings: Acquisition mode: continuous; Ramp rate: 0.1° C./sec; Acquisition: 6° C.
(§11) Curves are fitted with raw and normalized data.
(§12) Melting curves analysis show melting temperature (Tm) of ˜51° C. Range of RNA concentrations was tested and assay window was determined (conc. range of 0.5-1 μM yields best results). The choice of buffer also affected the Tm. RNA constructs were tested under different buffer conditions (especially in presence of salt) in the thermal shift assay. […] CacoK with 30 mM salt at 1 μM RNA conc. was used to assess compound effects on 3WJ stability. […] These conditions were used for screening test compounds.

[2] = test system: 3WJ_0.0.0_5IB_3FAM RNA construct; assay: Fluorescence quenching binding assay (FAM / Iowa Black); conditions: concentration dependent; effect at conc. >5 μM
Method: This assay will be used to test binding of compounds for RNA three way junction (such as a 38 nt construct). This is a fluorescence quenching assay utilizing FAM as fluorescence tag and Iowa Black as quencher. Tags are attached at the 3′ and 5′ end, respectively. Stable formation of MW upon compound binding would lead to quenching of the FAM fluorescence due to close proximity of the Iowa Black tag. Assay readout: FAM (485-520 nm) Fluorescence Intensity.
as §2, §3, §4, §5
(§13) Dilute the compounds to 800 μM in DMSO (Assay: 8 μM).
Final concentrations in the sample: 1-10 μM RNA, 8 μM compound, 1% DMSO
Pipet 25 μL Sample Solution into Greiner cat #784076, black, 384
Measure the 96 plate with the LightCycler480 (Channel: 485/520 nm).
Calibration of the expected fluorescence signal at various RNA concentrations in either CacoK or NaPO4 buffers was performed first. Experiments in buffers containing salt show distinct fluorescence quenching behavior. […]
First, two compounds (i.e. Ark000007 & Ark000008) were tested in the fluorescence quenching assay to assess concentration dependent influence on the fluorescence signal.

RNA3WJ_3.0.0_5IB_3FAM = assay: Thermal shift binding assay; conditions: RNA:ligand ratios 1:1, 1:3
Description: as §1, §2, §3, §4, §5, §6, §7, §8, §9, §10, §11, §12

[3] = test system: RNA3WJ_1.0.0_5IB_3FAM (cis 3WJ with one unpaired nucleotide); assay: Thermal shift binding assay; conditions: RNA:ligand ratios 1:1, 1:3
Description: as §1, §2, §3, §4, §5, §13
Final concentrations in the sample: 1 μM RNA, 8 μM compound, 1% DMSO
as §7, §8, §9, §10, §11, §12
Compounds Ark0000013 and Ark0000014 were also tested in the thermal shift assay against three RNA 3WJ constructs, A) RNA3WJ_1.0.0_5IB_3FAM (cis 3WJ with one unpaired nucleotide); B) Split3WJ.1_up_5IB+Split3WJ.1_down_3FAM (trans 3WJ as 1:1 mix); and C) Split3WJ.2_up_5IB+Split3WJ.2_down_3FAM (trans 3WJ as 1:1 mix).

[4] = test system: 17CAG and 41CAG RNA (httmRNA); assay: Ligand observed NMR binding assay for CAG repeat RNA; conditions: 3 μM RNA, 200 μM compound, 288 K
Method: Following the above procedure, various tool and test compounds were assayed for binding. In a first series of experiments, compounds were tested for binding to 17CAG or 41CAG (sample was 3 μM in RNA). […] However, several of the compounds did show significant changes in their signals in the presence of the two RNA target species.
Purpose: Test direct binding of compounds for httmRNA (construct with 41 CAG repeats 474 nt) and others as described below. Ligand observed NMR assay to test direct binding of fragments to RNA target (e.g. construct with 41 CAG repeats 474 nt). Single compound hits were identified for further characterization by orthogonal assay (e.g. surface plasmon resonance, SPR). Ligand observed assay was used for primary screen and deconvolution into single fragment hits. Established experiments were eventually used for group epitope mapping.
This assay tests for direct binding of compounds to httmRNA and may be adapted for other repeat RNAs. Compounds are tested in pools (i.e. pool size of 12 fragments in each sample in the primary screen and smaller pool sizes during deconvolution and eventually single compound measurements).
Sample buffer: 10 mM Tris-HCl, pH 8.0, 0.78 g [MW: 157.56 g/mol]; 75 mM KCl, 2.79 g [MW: 74.55 g/mol]; 3 mM MgCl2, 0.14 g [MW: 95.21 g/mol]; fill up to 500 mL with Millipore H2O.
Dried RNA pellet is solubilized in sample buffer 10 mM Tris-HCl pH 8.0, 75 mM KCl, 3 mM MgCl2. RNA aliquot at 13.9 μM (stock concentration) is denatured at 95° C. for 3 min and snap-cooled on ice for 3 min, and refolded at 37° C. for 30 min.
Final concentrations in the sample: 200 μM each fragment and 3 μM RNA target molecule.
Sample is placed into magnet and temperature adjusted to 288 K. Spectrometer frequency at 600 MHz is matched and tuned. Magnetic field is shimmed to homogenize magnetic field around the sample.
Sequence of experiments includes a Proton 1D experiment with a Watergate sequence for water suppression, a WaterLOGSY (WLOGSY) and a 1D Saturation transfer difference (STD) experiment to test for direct binding of the compounds to the RNA.
Details for 1D Watergate experiment: For each 1D WATERGATE spectrum a total of 8192 complex points in f1 (^1H) with 128 scans were acquired (experiment time 4 min.). The spectral width was set to 16.66 ppm.
Details WLOGSY experiment: For the WLOGSY-spectrum, a total of 1024 complex points in f1 (^1H) with 256 scans were acquired (experiment time 25 min.). The carrier frequency for ^1H was set at the water resonance (˜4.7 ppm). The spectral width was set to 16.66 ppm in the direct dimension (^1H).
Details STD experiment: For the STD-spectrum, a total of 1024 complex points in f1 (^1H) with 1024 scans were acquired (experiment time 65 min.). The carrier frequency for ^1H was set at the water resonance (˜4.7 ppm). The spectral width was set to 16.66 ppm in the direct dimension (^1H). For the on-resonance experiments saturation is set to 2.0 sec at a saturation frequency of −2500 Hz. For the off-resonance experiment saturation frequency is set at 10200 Hz.
Python scripts were used to process all recorded spectra in the assay setup, screening and deconvolution process. Spectra were analyzed for direct binding signals of the compounds. Identified single compound hits were reported.

41CAG RNA (476 nt) = assay: NMR competition experiments (WaterLOGSY); type: binding; conditions: 100 μM compound, 2.5 μM RNA
Method: Competition experiments were also performed. Test Sample: 2.5 μM 41CAG RNA (476 nt) was combined with the following: 100 μM HP-AC008002-E01 (A); +/−200-400 μM HP-AC008001-E02 (B); and +/−200-400 μM HP-AT005003-C03 (C). ^1H 1D Watergate & WaterLOGSY spectra recorded of HP-AC008002-E01 are used as a reference.
In a further experiment, as Test Sample 2.5 μM 41CAG RNA (476 nt) was used in the presence of: 100 μM HP-AC008001-E02 (B) or 100 μM HP-AT005003-C03 (C); +/−200-400 μM HP-AC008002-E01 (A). ^1H 1D Watergate and WaterLOGSY spectra recorded single cmpds were used as a reference.
In a further experiment, as Test Sample: 2.5 μM 41CAG RNA (476 nt) was used in the presence of: 100 μM HP-AC008001-E02 (B)+/−200-400 μM HP-AT005003-C03 (C). ^1H 1D Watergate & WaterLOGSY spectra recorded of single cmpd HP-AC008001-E02 were used as a reference.

[5] = 1 μM RNA, 8 μM compound, 10 mM CacoK pH 7.2, 30 mM NaCl
[6] = competitor HP-AC008002-E01 200-400 μM (up to 1:4)

Row | STD signal [4] | Structure (SMILES) | Melt. Temp. with cmpd [1] [°C] | Shift melt. Temp. [1] | also measured
1 | – | CN(CCOCCOCCOCCNC(=O)CCC12c3cc(NC(=O)CCCCCCCN)ccc3C(c3ccc(NC(=O)CCCCCCCN)cc31)c1ccc(NC(=O)CCCCCCCN)cc12)C(=O)[C@@H]1C[C@H](N=[N+]=[N-])CN1C(=O)c1ccc(S(=O)(=O)F)cc1 [ARK000032, 4-((2S,4S)-4-azido-2-(methyl(12-methyl-13-oxo-15-(2,7,15-tris(8-aminooctanamido)-9,10-[1,2]benzenoanthracen-9(10H)-yl)-3,6,9-trioxa-12-azapentadecyl)carbamoyl)pyrrolidine-1-carbonyl)benzenesulfonyl fluoride] | 75.1 | +15.0 °C | Temp. Shift [1, 5]: +15.0 °C
2 | – | CN(CCOCCN(C)C(=O)[C@@H]1C[C@H](N=[N+]=[N-])CN1C(=O)c1ccc2c(=O)oc(=O)n(C)c2c1)C(=O)CCC12c3cc(NC(=O)CCCCCCCN)ccc3C(c3ccc(NC(=O)CCCCCCCN)cc31)c1ccc(NC(=O)CCCCCCCN)cc12 [ARK000033, N,N′,N″-(9-(3-((2-(2-((2S,4S)-4-azido-N-methyl-1-(1-methyl-2,4-dioxo-1,4-dihydro-2H-benzo[d][1,3]oxazine-7-carbonyl)pyrrolidine-2-carboxamido)ethoxy)ethyl)(methyl)amino)-3-oxopropyl)-9,10-dihydro-9,10-[1,2]benzenoanthracene-2,7,15-triyl)tris(8-aminooctanamide)] | 62.4 | +0.9 °C | –
3 | – | CN(CCOCCN(C)C(=O)[C@@H]1C[C@H](N=[N+]=[N-])CN1C(=O)c1ccc2c(=O)oc(=O)[nH]c2c1)C(=O)CCC12c3cc(NC(=O)CCCCCCCN)ccc3C(c3ccc(NC(=O)CCCCCCCN)cc31)c1ccc(NC(=O)CCCCCCCN)cc12 [ARK000034, N,N′,N″-(9-(3-((2-(2-((2S,4S)-4-azido-1-(2,4-dioxo-1,4-dihydro-2H-benzo[d][1,3]oxazine-7-carbonyl)-N-methylpyrrolidine-2-carboxamido)ethoxy)ethyl)(methyl)amino)-3-oxopropyl)-9,10-dihydro-9,10-[1,2]benzenoanthracene-2,7,15-triyl)tris(8-aminooctanamide)] | 60.2 | +0.3 °C | –
4 | – | [N-]=[N+]=NC[C@H]1O[C@H](O[C@@H]2[C@@H](O)[C@H](O[C@H]3O[C@H](CN)[C@@H](O)[C@H](O)[C@H]3O)[C@@H](N)C[C@H]2N)[C@H](O)[C@@H](N)[C@@H]1O [Ark000007, 6″-Azido-Kanamycin a Hydrochloride Salt] | 65.6 | +4.4 °C | fluorescence quenching effect (FAM fluorescence signal) [2]: increase of quenching effect; Melting temp + cmpd [1, 5]: 65.6 °C; Temp. Shift [1, 5]: ~5 °C
5 | – | CN(CCCN)CCCNC(=O)c1ccccc1 [Ark000039] | 60.3 | −1.2 °C | effect in the melting curves (raw and normalized data) ([1]; RNA:ligand ratios 1:1, 1:3): no significant effect; effect in the melting curves (raw and normalized data) (RNA3WJ_3.0.0_5IB_3FAM): lack of effect; effect in the melting curves (raw and normalized data) [3]: lack of effect
6 | distinct | O=C(c1ccc(Cl)cc1)N1CCN(c2ccc([N+](=O)[O-])c3ncccc23)CC1 [CPNQ, reference compound] | – | – | –
7 | distinct | Cc1nn(-c2ccccc2)nc1CN [HP-AC008001-E02] | – | – | WaterLOGSY signals in the presence of competitor (41CAG RNA (476 nt); [6]): still observed; WaterLOGSY signals in the presence of competitor (41CAG RNA (476 nt); competitor HP-AT005003-C03 200-400 μM (up to 1:4)): still observed
8 | distinct | OCc1cccc(-c2cccnc2)c1 [HP-AC008002-E01] | – | – | WaterLOGSY signals in the presence of competitor (41CAG RNA (476 nt); competitor HP-AC008001-E02 or HP-AT005003-C03 200-400 μM (up to 1:4)): still observed
9 | weak | NCc1ccc2ccccc2n1 [HP-AC008004-C07] | – | – | –
10 | distinct | CC(O)CNCc1ccc(-c2ccccc2)o1 (centres unmarked) [HP-AT005003-C03] | – | – | WaterLOGSY signals in the presence of competitor (41CAG RNA (476 nt); [6]): still observed
